From US11098203B2, “Polymer coatings” (COMMONWEALTH SCIENTIFIC AND INDUSTRIAL RESEARCH ORGANISATION, priority 2016, dated 2021)

melting point: 121 to 122 °C
Compound: C=CC(=O)N1C(=C)C(c2ccccc2F)CC1=O (stereo not shown) [DHP, 5-methylene-1-(prop-2-enoyl)-4-(2-fluorophenyl)-dihydropyrrol-2-one]
